Here are results for 14 compounds from US20230255970A1, “COMPOSITIONS AND METHODS FOR TREATING PROLIFERATIVE DISEASES” (The Broad Institute, Inc., priority 2020, published 2023).

Structures are written as SMILES.

For one test, the target named is T1, p38a (MAPK14) (Homo sapiens, UniProt Q16539).
T1 construct: tested for their influence on p38a activity using the RPE1-p38 kinase translocation reporter (KTR) line; endogenous in cells; host or cells: RPE1-p38KTR cells
The test can be described thus: Single-cell p38a activity reporter assay (RPE1-p38 KTR). Type of test: cell-based. The conditions noted are these: 1 μM, confirmed at 10 μM; 48 hours; RPE1 cells. (In a reporter assay the amount or activity of a reporter protein is the signal.)

A further test deals with PPARG. Kind of test: PPARG reporter gene assay (FABP4-NanoLuc, RT112/84 bladder cancer cell line). Type of test: cell-based. The following applies: absence or presence of Rosiglitazone. How it is done:
These NanoLuc gene cloned RT112/84 cells were plated in 384-well plates at ˜10,000 cells/well. Cells were dosed with indicated compounds in the absence or presence of EC50 of PPARG agonist, rosiglitazone, using an HP D300 digital dispenser. The following day nuclei were counted for normalization (IncuCyte S3, Essen Bioscience) and the reporter activity was evaluated using the NanoGlo Luciferase Assay System (Promega). Normalized data is reported as NanoGlo arbitrary light units divided by cell number. PPARG agonist, rosiglitazone, and inhibitor, T0070907, were obtained from Tocris and included as controls.

The subject of another test is rat cortical neurons. Kind of test: TMRE staining (mitochondrial membrane potential) in rat cortical neurons. Type of test: cell-based. The following applies: 10 μM. How it is done: High content mitochondrial motility screen: Mitochondrial motility was measured as described in Shlevkov, E. et al., Cell Rep. […] Briefly, we plated E18 rat cortical neurons in the middle 60 wells of 96 well plates (Greiner)—40,000 cells per well in 150 μl enriched Neurobasal media. Neurons were transfected with mito-DsRed at DIV7 using Lipofectamine2000 (Life Technologies). […] At DIV9, test compounds were added into wells to achieve a final concentration of 10 μM each (4 wells per compound), as well at 10 μM calcimycin for neg. control, and DMSO only for mock treatment. Following a 1-2 hour incubation, plates were imaged on a ArrayScan XTI (Thermo Fisher). Mitochondrial motility data was extrapolated from imaging data using a MATLAB and CellProfiler based computational pipeline. […] The experiment was repeated twice in different weeks. In the second week, TMRE was added to all wells after imaging was completed (20 min, then 2 washes) and imaged to measure mitochondrial membrane potential in order to determine mitochondrial and cell health.

Test [1] has as its system YAP1 overexpression in U2OS cells. The test can be described thus: Cell Painting morphological profile matching to YAP1/TAZ overexpression signature. Type of test: cell-based, human. The conditions noted are these: Pearson correlation of Cell Painting signatures, U2OS cells. The source says: (§1) Of these, analysis of the 220 constructs that were most closely representative of the annotated full-length transcripts was prioritized. […] Not all genes are likely to impact cellular morphology given the limitation of the experiment; using a single cell line at a single time point under a single set of conditions and stained with six fluorescent labels.
FIG. 2 provides an example characterization of matching the morphological signature of a gene query to the signature(s) of compounds in a library. Connections which show both positive and negative large correlations are considered as matches.
(§2) This standardization was done plate wise, based on the mean and standard deviation of the controls at profile level for the compound dataset. […] The signatures were then obtained by averaging the replicate profiles feature-wise. Pearson correlation was used on the aligned signatures of a gene and compound to score their connection.

For test [2], the system named is TRAF2 overexpression in U2OS cells. Kind of test: Cell Painting morphological profile matching to TRAF2 overexpression. Type of test: cell-based, human. The following applies: Pearson correlation of Cell Painting signatures, U2OS cells.
From the text: as §1, §2

Another test concerns U2OS cells. The test can be described thus: Cell count in U2OS Cell Painting images. Type of test: cell-based, human. The following applies: U2OS Cell Painting.
From the text: as §1, §2

T1 sequence (Q16539 whole entry): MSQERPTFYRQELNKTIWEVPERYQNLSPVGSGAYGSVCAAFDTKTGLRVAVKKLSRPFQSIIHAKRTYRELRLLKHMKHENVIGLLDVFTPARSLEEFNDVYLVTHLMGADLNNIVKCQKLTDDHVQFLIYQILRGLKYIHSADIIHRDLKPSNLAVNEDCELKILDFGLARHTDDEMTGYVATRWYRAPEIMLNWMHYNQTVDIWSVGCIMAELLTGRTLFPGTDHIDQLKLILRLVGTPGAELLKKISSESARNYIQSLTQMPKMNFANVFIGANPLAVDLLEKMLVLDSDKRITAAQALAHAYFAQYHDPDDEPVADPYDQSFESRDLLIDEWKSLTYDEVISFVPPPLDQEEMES
Procedure for p38a (MAPK14): Cell Painting profiles for two wild-type variants of p38a (MAPK14) were averaged to create a p38a Cell Painting profile. 20 compounds whose Cell Painting profile correlated positively or negatively to that of p38a overexpression were selected in addition to 14 “non-correlated compounds” defined as having an absolute value of correlation of less than 0.2 as negative/neutral controls. The compounds were tested for their influence on p38a activity using the RPE1-p38 kinase translocation reporter (KTR) line that was previously generated. This cell line has been tested and confirmed to be negative for mycoplasma contamination, but not necessarily authenticated. P38 activity is measured by phosphorylation of its substrate, MEF2C, which is preferentially phosphorylated by p38 α, while p380 and p386 contribute less. RPE1-p38KTR cells were cultured in DMEM/F12 medium supplemented with 10% Fetal Bovine Serum at 37C in a humidified atmosphere with 5% CO2. 1000 cells were plated in 96-well plates and treated with 1p M or 10 μM of each compound (n=4 per concentration per compound, no replicates) for 48 hours. Only the middle 60 wells were used to prevent potential confounds from the edge effect. Cells were then fixed in 4% paraformaldehyde for 10 min, followed by permeabilization in cold methanol at −20C for 5 min. Cells were stained with 0.4 μg/mL Alexa Fluor 647 carboxylic acid, succinimidyl ester for 2 hr at RT, followed by 1 μg/mL DAPI for 10 min at RT to facilitate the segmentation of individual cells. p38a activity in single cells was calculated using the ratio of the median intensity of the p38-KTR in a 5-pixel-wide cytoplasmic ring around the nucleus to the median intensity of the p38-KTR in the nucleus. p38a activity measurements were normalized to DMSO conditions within the same plate. The Student's t-test Kolomogorov-Smirnov (KS) test was used to assess the score and significance of the single cell distributions of p38a activity for each compound relative to control. […] When reporting hits from this assay, KS test and t-test p-values were adjusted to control the false discovery rate using the Benjamini-Hochberg method, using the p.adjust method=‘BH” in R.

For the compound `Nc1nc(Nc2ccccc2)nc2c1ncn2C1OC(CO)C(O)C1O` (stereo not shown) [BRD-A64933752, 2-(6-amino-2-anilinopurin-9-yl)-5-(hydroxymethyl)oxolane-3,4-diol], at p38a (MAPK14), the p38a activity entry was “potential inhibitors”.
For `CC(C)(C)n1nc(-c2cccc3ccccc23)c2c(N)ncnc21` [BRD-K29542628, 1-(tert-Butyl)-3-(naphthalen-1-yl)-1H-pyrazolo[3,4-d]pyrimidin-4-amine], in the test with PPARG, the PPARG reporter activity entry is “active in the PPARG reporter assay”. Also, the “TMRE staining (mitochondrial membrane potential)” value (from here on “TMRE staining”) with rat cortical neurons is given as “normal levels of TMRE staining”.
For the compound `CCCCNc1cc(C(=O)O)cc(S(N)(=O)=O)c1Oc1ccccc1` [BRD-K38197229, 3-(butylamino)-4-phenoxy-5-sulfamoylbenzoic acid], at p38a (MAPK14), the p38a activity result was “potential inhibitors”.
Regarding `COC1(C[S@@+]([O-])c2ccccc2)CCN(CCc2c[nH]c3ccc(F)cc23)CC1` [BRD-K52394958, 5-Fluoro-3-[2-[4-methoxy-4-[[(R)-phenylsulfinyl]methyl]piperidin-1-yl]ethyl]-1H-indole], on p38a (MAPK14), the p38a activity entry was “identified via an alternative statistical test”.
Take `CCc1cc(-c2n[nH]c(C)c2-c2ccc3c(c2)OCCO3)c(O)cc1O` [BRD-K65503129, 4-[4-(2,3-dihydro-1,4-benzodioxin-6-yl)-5-methyl-1H-pyrazol-3-yl]-6-ethylbenzene-1,3-diol]: the PPARG reporter activity result with PPARG (listed as B09) is on record as “active in the PPARG reporter assay”; in the test with PPARG (listed as CCT018159), “inhibited reporter activity”.
Consider `COC(=O)C[C@H]1C[C@H]2c3cc(NS(=O)(=O)c4cccc(OC)c4)ccc3O[C@H]2[C@@H](CO)O1` [BRD-K68530167, 2-[(1R,3R,4aS,9aR)-1-(hydroxymethyl)-6-[(3-methoxyphenyl)sulfonylamino]-3,4,4a,9a-tetrahydro-1H-pyrano[3,4-b]benzofuran-3-yl]acetic acid methyl ester], for which the “Corr. to YAP1 cluster” value in test [1] is 0.494. Further, the “Corr. to TRAF2” value in test [2] is on record as −0.4619. Moreover, the “Avg. Cell Count z-score” value with U2OS cells was −0.1411.
On to `CCCCCCCCCCCCCC(=O)O[C@@H]1[C@@H](C)[C@@]2(O)[C@@H](C=C(CO)C[C@]3(O)C(=O)C(C)=C[C@@H]23)[C@@H]2C(C)(C)[C@]12OC(C)=O` [BRD-K68552125, 12-O-Tetradecanoylphorbol-13-acetate], for which the PPARG reporter activity entry with PPARG (listed as A06) is on record as “active in the PPARG reporter assay”; with PPARG (listed as Phorbol 12-myristate 13-acetate), “inhibited reporter activity”. The “TMRE staining” value in the test with rat cortical neurons is “normal levels of TMRE staining”.
Take `COc1cccc(S(=O)(=O)N2C[C@H](O)COC[C@@H]3O[C@H](CC(=O)N4CCN(c5ccccc5)CC4)CC[C@H]32)c1` [BRD-K70003473, 2-[(3S,6aR,8S,10aR)-3-hydroxy-1-(3-methoxyphenyl)sulfonyl-3,4,6,6a,8,9,10,10a-octahydro-2H-pyrano[2,3-c][1,5]oxazocin-8-yl]-1-(4-phenyl-1-piperazinyl)ethanone]: the “Corr. to YAP1 cluster” value in test [1] is −0.4195. In addition, the “Corr. to TRAF2” value in test [2] came out at 0.3099. Further, the “Avg. Cell Count z-score” value in the test with U2OS cells is 0.5728.
The corresponding values for `O=c1[nH]ccc2c(S(=O)(=O)N3CCCNCC3)cccc12` [BRD-K77793136, 5-(1,4-diazepan-1-ylsulfonyl)-2H-isoquinolin-1-one] are 0.4458, −0.4667 and −1.055.
The corresponding values for `CCc1nc(N)nc(N)c1-c1ccc(Cl)cc1` [BRD-K88429204, 5-(4-chlorophenyl)-6-ethylpyrimidine-2,4-diamine] are 0.4503, −0.3496 and −0.2165.
Turning to `CC(C)(C)n1nc(-c2ccc(Cl)cc2)c2c(N)ncnc21` [BRD-K95785537, 1-(tert-butyl)-3-(4-chlorophenyl)-1H-pyrazolo[3,4-d]pyrimidin-4-amine], the “TMRE staining” value in the test on rat cortical neurons is given as “normal levels of TMRE staining”.
Turning to `C[C@@H]1CN([C@H](C)CO)C(=O)CCCn2cc(nn2)CO[C@@H]1CN(C)S(=O)(=O)c1ccc(Oc2ccccc2)cc1` [BRD-K96698997, N-[[(8R,9S)-6-[(2R)-1-hydroxypropan-2-yl]-8-methyl-5-oxo-10-oxa-1,6,13,14-tetrazabicyclo[10.2.1]pentadeca-12(15),13-dien-9-yl]methyl]-N-methyl-4-phenoxybenzenesulfonamide], the “Corr. to YAP1 cluster” value in test [1] is given as −0.4518. In addition, in test [2], the “Corr. to TRAF2” value came out at 0.4834. The “Avg. Cell Count z-score” value with U2OS cells is −1.099.
Consider `Cc1ccc(-c2nn(C(C)(C)C)c3ncnc(N)c23)cc1` [PP1, reference compound], for which, in the test with PPARG, the PPARG reporter activity entry is on record as “reporter activation”.
In the case of `Oc1ccc(-c2nc(-c3ccc(F)cc3)c(-c3ccncc3)[nH]2)cc1` [SB202190, 4-(4-(4-fluorophenyl)-5-(pyridin-4-yl)-1H-imidazol-2-yl)phenol, reference compound], on p38a (MAPK14), the p38a activity entry is “suppressed p38a activity”.
